This is an account of results in patent US20090197949A1, “ANTITUMOR METHODS AND COMPOSITIONS COMPRISING SESQUITERPENE DERIVATIVES” (F.P.L. Pharma, Inc., priority 2001, published 2009).

Experiment [1] concerns L-929 mouse subcutaneous connective tissue (fibroblast). The experiment in a line: In vitro survival assay, resazurin reduction test, L-929. Format: cell-based. The settings on record: L929, L-929, 48 h. From the text:
(§1) Normal human fibroblasts were purchased from Biopredic International (Rennes, France). This frozen culture was obtained from a person abdominal surgical waste and the cells used in this work was from the 7th to the 12th passage of the culture. M4Beu and […], human melanoma cell lines, was established in the laboratory of Dr. J. F. Doré (Institut National de la Santé et de la Recherche Médicale-INSERM, Unit 218, Lyon, France) from metastatic biopsy specimens (Thomasset, N. et al.; British Journal of Cancer, 46, 58-66 (1982)). Murine colon carcinoma cell line CT-26 was obtained from Dr I. J. Fidler (University of Texas M.D. Anderson Cancer Center, Houston). […] The effect of essential oils and compounds of oil on the proliferation of tumour cells was assessed using resazurin reduction test. […] The plates were incubated 1 h at 37° C. in an humidified atmosphere with 5% of CO2 for fluorescence development by living cells. Fluorescence was then measured on the automated 96-well plate reader Fluoroskan Ascent FLTM (Labsystems) using an excitation wavelength of 530 nm and an emission one of 590 nm. […] The essentials oil of jack pine (Pinus banksiana or Pinus divaricata), eastern white cedar (Thuya occidentalis), balsam fir (Abies balsamea), were evaluated for their cytotoxic activity against various tumor cell lines (Table 1). […]
(Resazurin is reduced to fluorescent resorufin, in cell work by metabolically active cells.)

Experiment [2] relates to glutathione-S-transferase. To be noted: Zheng et al. 1992; cited from earlier work.
Experiment [3] concerns A-549 human lung carcinoma. In words: cells. Format: cell-based. From the text:
(§2) Normal human fibroblasts were purchased from Biopredic International (Rennes, France). This frozen culture was obtained from a person abdominal surgical waste and the cells used in this work was from the 7th to the 12th passage of the culture. M4Beu and […], human melanoma cell lines, was established in the laboratory of Dr. J. F. Doré (Institut National de la Santé et de la Recherche Médicale-INSERM, Unit 218, Lyon, France) from metastatic biopsy specimens (Thomasset, N. et al.; British Journal of Cancer, 46, 58-66 (1982)). Murine colon carcinoma cell line CT-26 was obtained from Dr I. J. Fidler (University of Texas M.D. Anderson Cancer Center, Houston). Breast cancer adenocarcinoma MCF-7 and MDA-MB-231, prostatic adenocarcinoma PC-3, ovary adenocarcinoma SK-OV-3, lung carcinoma A-549, colon adenocarcinoma DLD-1, human cell lines and melanoma 1B16 and fibroblast L-929 murine cell lines were purchased from American Type of Culture Collection (ATCC) or the European Collection of Cell Cultures (ECACC; Salisbury, United-Kingdom). Stock cell cultures were maintained as monolayers in 75-cm^2 culture flasks in GlutamaxTM Eagle's minimum essential medium with Earle's salts (Gibco-BRL, Paisley, Scotland) supplemented with 10% foetal calf serum (Sigma), and 5 ml of a 100× solution of vitamins (Gibco), 5 ml of 100 mM sodium pyruvate (Gibco), 5 ml of 100× non-essential amino acids (Gibco) and 2 mg of gentamicin base (Gibco). Cells were grown in a humidified 37° C. incubator containing 5% CO2. Cells were plated at a density of 5×10^3 cells per well in 96-well microplates (NunclonTM, Nunc) in 100 μl of culture medium and were allowed to adhere for 16 h before treatment. Then, 100 μl of culture medium containing essential oil of Pinus divaricata, essential oil of Thuya occidentalis, essential oil of Abies balsamea, α-humulene (Sigma-Aldrich); isocaryophyllene (Sigma-Aldrich) were added and incubated at 37° C. for 48 h. All compounds were dissolved in ethanol and the final concentration of ethanol in the culture medium was maintained at 0.5% (v/v). The effect of essential oils and compounds of oil on the proliferation of tumour cells was assessed using resazurin reduction test. Resazurin was recently identified as the alamar Blue dye (O'Brien, J. et al.; European Journal of Biochemistry, 267, 5421-6, (2000)). The resazurin reduction test (RRT) was carried out according to the protocol described here. Briefly, plates were rinsed by 200 μl PBS (37° C., Gibco) at 37° C. using an automatic microplate washer (Cell WashTM, Labsystems, Helsinki, Finland) and emptied by overturning on absorbent toweling. Then, 150 μl of a 25 μg/ml solution of resazurin in RPMI 1640 without Phenol red was added in each well using an automatic microvolume dispenser (Multidrop 384TM Labsystems). The plates were incubated 1 h at 37° C. in an humidified atmosphere with 5% of CO2 for fluorescence development by living cells. Fluorescence was then measured on the automated 96-well plate reader Fluoroskan Ascent FLTM (Labsystems) using an excitation wavelength of 530 nm and an emission one of 590 nm. The fluorescence is proportional to the number of living cells in the well and IC50 (drug concentration required to inhibit cell proliferation by 50%) was calculated from the curve of concentration-dependent survival percentage, defined as the fluorescence in experimental wells as a percentage of that in control wells, with blank values subtracted. The essentials oil of jack pine (Pinus banksiana or Pinus divaricata), eastern white cedar (Thuya occidentalis), balsam fir (Abies balsamea), were evaluated for their cytotoxic activity against various tumor cell lines (Table 1). The cell growth inhibition were measured by the fluorescence induced by the metabolic transformation of resazurin in resorufin. The fluorescence is proportional to living cells and allow to evaluate the concentration inhibiting 50% of cell growth (IC50).

Experiment [4] concerns PC-3 human prostatic adenocarcinoma. The experiment in a line: cells. Format: cell-based.
Text: as §2

In experiment [5] the test system is MCF-7 human breast adenocarcinoma. The experiment in a line: cells. Format: cell-based.
Text: as §2

Experiment [6] relates to DLD-1 human colon adenocarcinoma. The experiment in a line: cells. The class given is cell-based.
Text: as §2

Another experiment concerns M4BEU human melanoma. In words: cells. Format: cell-based.
Text: as §2

Experiment [7] has as its system CT-26 mouse colon carcinoma. In words: In vitro survival assay, resazurin reduction test, CT-26. The class given is cell-based. To be noted: CT26, CT-26, 48 h.
Text: as §1

A further experiment deals with Normal human fibroblasts. In words: In vitro survival assay, resazurin reduction test, normal fibroblasts. The class given is cell-based. The settings on record: Fibroblast.
Text: as §1, with “Houston). Breast cancer adenocarcinoma MCF-7 and MDA-MB-231, prostatic adenocarcinoma PC-3, ovary adenocarcinoma SK-OV-3, lung carcinoma A-549, colon adenocarcinoma DLD-1, human cell lines and melanoma 1B16 and fibroblast L-929 murine cell lines were purchased from American Type of Culture Collection (ATCC) or the European Collection of Cell Cultures (ECACC; Salisbury, United-Kingdom).” for “Houston).”, “1). The cell growth inhibition were measured by the fluorescence induced by the metabolic transformation of resazurin in resorufin.” for “1).”

A further experiment has as its system tumor cell lines. In words: In vitro cytotoxic/antitumoral activity against tumor cell lines (panel statement). Format: cell-based.
The subject of experiment [8] is gastric mucosal injuries induced by necrotizing agents. The settings on record: necrotizing agents such as absolute ethanol and HCl; Tambe et al. 1996; cited from earlier work.
Experiment [9] deals with about ten tumor cell lines. To be noted: Kaneda et al. 1992; cited from earlier work.
Where [10] appears, read: A549, A-549, 48 h, read-out: IC50.
Where [11] appears, read: MCF7, MCF-7, 48 h, read-out: IC50.

Like-named read-outs stand apart in the source and are kept apart here.

As to `CC1=CCCC(C)=CCC(C)(C)C=CC1` [α-humulene, 2,6,6,9-Tetramethyl-1,4,8-cycloundecatriene], the IC50 was 50.2 ± 0.3 µM in [1]; 68 ± 2 µM in experiment [3] (setting [10]); < 100 µM in experiment [3] (A549, read-out: cytotoxic activity); 73 ± 2 µM in experiment [4] (PC-3, 48 h, read-out: IC50); < 100 µM in experiment [4] (read-out: cytotoxic activity); 73 ± 2 µM in experiment [5] (setting [11]). Also, the IC50 is < 100 µM in [5] (MCF7, read-out: cytotoxic activity); 71 ± 2 µM in [6] (DLD-1, 48 h, read-out: IC50); < 100 µM in [6] (DLD-1, read-out: cytotoxic activity); 55 ± 2 µM in the experiment on M4BEU human melanoma (48 h, read-out: IC50); < 100 µM in the experiment on M4BEU human melanoma (read-out: cytotoxic activity); 53 ± 1 µM in experiment [7]. Moreover, the IC50 with Normal human fibroblasts (48 h, read-out: IC50) was found to be 85 ± 5 µM. Moreover, in experiment [2], the “glutathione-S-transferase activity in vivo” value was “increasing of gluthatione-S-transferase activity”.

In the case of `C=C1CCC=C(C)CC[C@H]2[C@@H]1CC2(C)C` (relative stereo) [Isocaryophyllene, cis-4,11,11-Trimethyl-8-methylenebicyclo[7.2.0]undec-4-ene], the IC50 was 34 ± 0.8 µM in [1]; < 100 µM in the experiment on tumor cell lines (all tumor cells tested, Table 2); 59 ± 4 µM in [3] (setting [10]); 87 ± 8 µM in experiment [4] (PC-3, 48 h, read-out: IC50); 84 ± 6 µM in experiment [5] (setting [11]); 124 ± 17 µM in experiment [6] (DLD-1, 48 h, read-out: IC50). The IC50 in the experiment on M4BEU human melanoma (48 h, read-out: IC50) was 43 ± 3 µM; in experiment [7], 46 ± 1 µM; in the experiment with Normal human fibroblasts (48 h, read-out: IC50) it was 124 ± 15 µM; in the experiment on Normal human fibroblasts (fibroblastic normal cell, Table 2, read-out: activity against fibroblastic normal cell), > 100 µM.

As for `C=C1CC/C=C(\C)CC[C@@H]2[C@@H]1CC2(C)C` [β-caryophyllene], in experiment [8], the gastric cytoprotection effect result was “inhibition of gastric mucosal injuries”. The “glutathione-S-transferase activity in vivo” value in experiment [2] is recorded as “increasing of gluthatione-S-transferase activity”. Moreover, the “antitumoral activity in vitro, evaluated by the Applicants” value with tumor cell lines is “no significant bioactivity”.

For `C=C1CC[C@H]2O[C@]2(C)CC[C@@H]2[C@@H]1CC2(C)C` [β-caryophyllene oxide], the “glutathione-S-transferase activity in vivo” value in [2] is “increasing of gluthatione-S-transferase activity”. For the same compound, in the experiment with tumor cell lines, the “antitumoral activity in vitro, evaluated by the Applicants” value is listed as “no significant bioactivity”. The “activity in vitro against about ten tumor cell lines” value in experiment [9] was “inactive”.
